# Reference: the supplement of paper PMC10307832
# Assays:
# Experiment in all cases: relative viability (nuclei count vs DMSO), 5 days (fraction); higher = more cells survive
# AZ628 + Decitabine = compound: CC1=C(C=C(C=C1)NC(=O)C2=CC(=CC=C2)C(C)(C)C#N)NC3=CC4=C(C=C3)N=CN(C4=O)C [AZ628] + Nc1ncn([C@H]2C[C@H](O)[C@@H](CO)O2)c(=O)n1 [Decitabine] (partner 2 µM)
# Method in brief: (§1)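 Relative viability was taken as the ratio of nuclei in treated wells to nuclei in vehicle wells. Lung cancer cell lines in 1536-well plates received compounds by pin tool one day after seeding, either one drug alone or a fixed anchor-drug dose plus five library-drug doses (not always all listed) in √10 steps. Nuclei were counted on 4× images after 5 days of treatment, and values are medians of duplicate plates.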
# QS11 + Linsitinib = compound: C1CC2=C(C1)C=C(C=C2)OC3=NC(=C4C(=N3)N(C=N4)CC5=CC=C(C=C5)C6=CC=CC=C6)N[C@@H](CC7=CC=CC=C7)CO [QS11] + C[C@]1(O)C[C@@H](c2nc(-c3ccc4ccc(-c5ccccc5)nc4c3)c3c(N)nccn32)C1 [Linsitinib] (partner 1 µM)
# Method in brief: as §1
# AZ628 + Foretinib = compound: CC1=C(C=C(C=C1)NC(=O)C2=CC(=CC=C2)C(C)(C)C#N)NC3=CC4=C(C=C3)N=CN(C4=O)C [AZ628] + COc1cc2c(Oc3ccc(NC(=O)C4(C(=O)Nc5ccc(F)cc5)CC4)cc3F)ccnc2cc1OCCCN1CCOCC1 [Foretinib] (partner 0.25 µM)
# Method in brief: as §1
# Darinaparsin + Alpelisib = compound: C[As](C)SC[C@H](NC(=O)CC[C@H](N)C(=O)O)C(=O)NCC(=O)O [Darinaparsin] + Cc1nc(NC(=O)N2CCC[C@H]2C(N)=O)sc1-c1ccnc(C(C)(C)C(F)(F)F)c1 [Alpelisib] (partner 2 µM)
# Method in brief: as §1
Cell Line,relative viability (AZ628 + Decitabine; first compound 0.08 µM),relative viability (AZ628 + Decitabine; first compound 0.253 µM),relative viability (AZ628 + Decitabine; first compound 0.8 µM),relative viability (AZ628 + Decitabine; first compound 2.53 µM),relative viability (AZ628 + Decitabine; first compound 8 µM),relative viability (QS11 + Linsitinib; first compound 0.08 µM),relative viability (QS11 + Linsitinib; first compound 0.253 µM),relative viability (QS11 + Linsitinib; first compound 2.53 µM),relative viability (QS11 + Linsitinib; first compound 8 µM),relative viability (AZ628 + Foretinib; first compound 0.08 µM),relative viability (AZ628 + Foretinib; first compound 0.253 µM),relative viability (AZ628 + Foretinib; first compound 0.8 µM),relative viability (AZ628 + Foretinib; first compound 2.53 µM),relative viability (AZ628 + Foretinib; first compound 8 µM),relative viability (Darinaparsin + Alpelisib; first compound 0.08 µM),relative viability (Darinaparsin + Alpelisib; first compound 0.8 µM),relative viability (Darinaparsin + Alpelisib; first compound 2.53 µM),relative viability (Darinaparsin + Alpelisib; first compound 8 µM),relative viability (QS11 + Linsitinib; first compound 0.8 µM)
A-427,0.58,0.582,0.494,0.52,0.451,1.12,1.1,1.14,1.09,0.996,0.872,0.542,0.643,0.34,1.11,1.05,1.08,1.12,
SK-MES-1,0.448,0.379,0.434,0.43,0.338,1.13,1.08,1.03,1.05,0.837,0.894,0.801,0.771,0.846,1.01,0.909,0.63,0.993,0.959
NCI-H1623,,,,,,,,,,0.848,0.829,0.62,0.764,0.498,,,,,
HCC-827,0.33,0.32,0.348,0.402,0.313,0.977,1.04,0.929,0.821,0.982,0.933,0.967,1.02,0.715,1.05,1.04,1.01,1.04,0.877
EKVX,0.367,0.369,0.401,0.266,0.287,1.04,0.995,1.02,0.982,0.724,0.609,0.721,0.847,0.564,0.943,0.844,0.857,1.1,
SW 900,0.442,0.445,0.509,0.417,0.441,,,,,0.931,0.874,0.971,0.685,0.619,,,,,
NCI-H661,0.601,0.491,0.445,0.451,0.482,0.522,0.681,0.408,0.549,1.12,0.974,0.846,0.866,0.832,0.632,0.692,0.683,0.668,0.556
NCI-H1975,0.402,0.358,0.344,0.338,0.265,1.1,1.04,1.31,1.39,0.905,0.922,0.872,0.918,0.582,0.758,0.777,0.483,0.704,0.926
NCI-H1944,0.426,0.434,0.414,0.416,0.282,1.18,1.38,1.18,1.26,0.943,0.842,0.69,0.757,0.604,0.946,0.912,0.823,0.905,
SK-LU-1,0.549,0.55,0.505,0.577,0.391,1.1,1.08,0.71,0.732,,0.75,0.685,0.628,0.589,1.11,0.956,0.797,1.06,0.989
